Read-outs that look alike come from different tables or passages of the source.
What was measured:
Type in all cases: in vivo
[1] = system: Beet Armyworm (Spodoptera exigua) ("BAW"), second instar larvae; experiment: Bioassay on beet armyworm (BAW), 128-well diet tray assay; conditions: Spodoptera exigua
Method in brief: (§1)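 Each value represents average percent mortality from eight wells. Larvae were kept in clear-covered trays at 25° C. for five to seven days on a 14-hour light, 10-hour dark schedule before scoring.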

[2] = system: Cabbage Looper (Trichoplusia ni) ("CL"), second instar larvae; experiment: Bioassay on cabbage looper (CL), 128-well diet tray assay; conditions: Trichoplusia ni
Method in brief: as §1

[3] = system: Green Peach Aphid ("GPA") (Myzus persicae), wingless adult and nymph stages; experiment: Bioassay on green peach aphid (GPA), foliar spray on infested cabbage seedlings; conditions: Myzus persicae, foliar, 72 h
Method in brief: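 Values are corrected % control, 100*(X−Y)/X, from live aphid counts per plant under a microscope, treated versus solvent-check plants. Four infested seedlings (20-50 GPA each) per treatment were sprayed to runoff and kept three days near 25° C at ambient RH.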

[4] = system: Yellow Fever Mosquito "YFM" (Aedes aegypti), about 1 day-old larvae; experiment: Bioassay on yellow fever mosquito (YFM), 96-well plate larval assay; conditions: for YFM (Biological Results, rating): Yellow Fever Mosquito (Aedes aegypti) larvae, scored on mortality after 3 days, C = Not Tested; for YFM rating: Table ABC, species YFM, mortality scored after 3 days, C = not tested, D = no activity noticed
Protocol: Example C: Bioassays on Yellow Fever Mosquito “YFM” (Aedes aegypti)
Certain molecules disclosed in this document were tested against YFM using procedures described in the following paragraph. In the reporting of the results, the “YFM Rating Table” was used (See Table Section).
Master plates containing 400 μg of a molecule dissolved in 100 μL of dimethyl sulfoxide (DMSO) (equivalent to a 4000 ppm solution) are used. A master plate of assembled molecules contains 15 μL per well. To this plate, 135 μL of a 90:10 water:acetone mixture is added to each well. A robot (Biomek® NXP Laboratory Automation Workstation) is programmed to dispense 15 μL aspirations from the master plate into an empty 96-well shallow plate (“daughter” plate). There are 6 reps (“daughter” plates) created per master. The created daughter plates are then immediately infested with YFM larvae.
The day before plates are to be treated, mosquito eggs are placed in Millipore water containing liver powder to begin hatching (4 g. into 400 mL). After the daughter plates are created using the robot, they are infested with 220 μL of the liver powder/larval mosquito mixture (about 1 day-old larvae). After plates are infested with mosquito larvae, a non-evaporative lid is used to cover the plate to reduce drying. Plates are held at room temperature for 3 days prior to grading. After 3 days, each well is observed and scored based on mortality.

[5] = read-out: BAW (Biological Results, rating)
[6] = read-out: CL (Biological Results, rating)
[7] = read-out: GPA (Biological Results, rating)

SMILES | pest or weed control at 50 µg/cm2 [1, 5] | pest or weed control at 50 µg/cm2 [2, 6] | pest or weed control at 200 µg/mL [3, 7] | YFM (Biological Results, rating) [4] | pest or weed control at 50 µg/cm2 ([1]; read-out: BAW rating) | pest or weed control at 50 µg/cm2 ([2]; read-out: CL rating) | pest or weed control at 200 µg/mL ([3]; read-out: GPA rating) | YFM rating [4]
CC(F)(F)c1ccccc1N1C(=O)CS/C1=N\C(=O)NCCc1ccc(-c2ncn(-c3ccc(OC(F)(F)F)cc3)n2)cc1 [Compound H21] | 50 to 100% | 50 to 100% | 0 to 80% | A (80-100) | – | – | – | –
Cc1ccc(COCC(F)(F)F)c(N2C(=O)CS/C2=N\C(=O)Nc2ccc(-c3ncn(-c4ccn(CC(F)(F)F)c(=O)c4)n3)cc2F)c1 [Compound J751, (Z)-1-(2-Fluoro-4-(1-(2-oxo-1-(2,2,2-trifluoroethyl)-1,2-dihydropyridin-4-yl)-1H-1,2,4-triazol-3-yl)phenyl)-3-(3-(5-methyl-2-((2,2,2-trifluoroethoxy)methyl)phenyl)-4-oxothiazolidin-2-ylidene)urea] | – | – | – | – | 50 to 100% | 50 to 100% | 0 to 80% | A (80-100)
Cc1ccc(Cc2cccc(F)c2)c(N2C(=O)CS/C2=N\C(=O)Nc2ccc(-c3ncn(-c4ccc(C(F)(F)F)cc4)n3)cc2F)c1 [Compound J675, (Z)-1-(2-Fluoro-4-(1-(4-(trifluoromethyl)phenyl)-1H-1,2,4-triazol-3-yl)phenyl)-3-(3-(2-(3-fluorobenzyl)-5-methylphenyl)-4-oxothiazolidin-2-ylidene)urea] | – | – | – | – | 50 to 100% | 50 to 100% | – | A (80-100)
Cc1cc(-c2cn(-c3ccc(C(F)(F)F)cn3)cn2)ccc1NC(=O)/N=C1\SCC(=O)N1c1cc(N(C)C)ccc1C(C)C [Compound J510, (Z)-1-(3-(5-(Dimethylamino)-2-isopropylphenyl)-4-oxothiazolidin-2-ylidene)-3-(2-methyl-4-(1-(5-(trifluoromethyl)pyridin-2-yl)-1H-imidazol-4-yl)phenyl)urea] | – | – | – | – | 50 to 100% | 50 to 100% | 0 to 80% | A (80-100)
Cc1ccc(COCc2ccccc2Cl)c(N2C(=O)CS/C2=N\C(=O)Nc2ccc(-c3ncn(-c4ccc(OC(F)(F)F)cc4)n3)cc2F)c1 [Compound J572, (Z)-1-(3-(2-(((2-Chlorobenzyl)oxy)methyl)-5-methylphenyl)-4-oxothiazolidin-2-ylidene)-3-(2-fluoro-4-(1-(4-(trifluoromethoxy)phenyl)-1H-1,2,4-triazol-3-yl)phenyl)urea] | – | – | – | – | 50 to 100% | 50 to 100% | – | A (80-100)
Cc1ccc(C(F)(F)F)c(N2C(=O)CS/C2=N\C(=O)N[C@H](C)Cc2ccc(-c3ncn(-c4ccc(OC(F)(F)F)cc4)n3)cc2)c1 [Compound H3] | 50 to 100% | 50 to 100% | 80 to 100% | A (80-100) | – | – | – | –
O=C(/N=C1\SCC(=O)N1c1ccccc1-c1ccccc1)Nc1ccc(-c2ncn(-c3ccc(OC(F)(F)F)cc3)n2)cc1F [Compound J720, (Z)-1-(3-([1,1′-Biphenyl]-2-yl)-4-oxothiazolidin-2-ylidene)-3-(2-fluoro-4-(1-(4-(trifluoromethoxy)phenyl)-1H-1,2,4-triazol-3-yl)phenyl)urea] | – | – | – | – | 50 to 100% | 50 to 100% | – | A (80-100)
O=C(/N=C1\SCC(=O)N1c1cc(Cl)ccc1COCc1ccccc1)Nc1ccc(-c2ncn(-c3ccc(OC(F)(F)F)cc3)n2)cc1F [Compound J719, (Z)-1-(3-(2-((Benzyloxy)methyl)-5-chlorophenyl)-4-oxothiazolidin-2-ylidene)-3-(2-fluoro-4-(1-(4-(trifluoromethoxy)phenyl)-1H-1,2,4-triazol-3-yl)phenyl)urea] | – | – | – | – | 50 to 100% | 50 to 100% | 0 to 80% | A (80-100)
Cc1ccc(COCC(F)(F)F)c(N2C(=O)CS/C2=N\C(=O)Nc2ccc(-c3ncn(-c4ccnc(OCC(F)(F)F)c4)n3)cc2F)c1 [Compound J750, (Z)-1-(2-Fluoro-4-(1-(2-(2,2,2-trifluoroethoxy)pyridin-4-yl)-1H-1,2,4-triazol-3-yl)phenyl)-3-(3-(5-methyl-2-((2,2,2-trifluoroethoxy)methyl)phenyl)-4-oxothiazolidin-2-ylidene)urea] | – | – | – | – | 50 to 100% | 50 to 100% | – | A (80-100)
Cc1ccc(COCc2ccccc2)c(N2C(=O)CS/C2=N\C(=O)Nc2ccc(-c3ncn(-c4ccc(C(F)(F)F)cc4)n3)cc2F)c1 [Compound J747, (Z)-1-(3-(2-((Benzyloxy)methyl)-5-methylphenyl)-4-oxothiazolidin-2-ylidene)-3-(2-fluoro-4-(1-(4-(trifluoromethyl)phenyl)-1H-1,2,4-triazol-3-yl)phenyl)urea] | – | – | – | – | 50 to 100% | 50 to 100% | 0 to 80% | A (80-100)
O=C(/N=C1\SCC(=O)N1c1ccccc1COCc1ccccc1)Nc1ccc(-c2ncn(-c3ccc(OC(F)(F)F)cc3)n2)cc1F [Compound J742, (Z)-1-(3-(2-((Benzyloxy)methyl)phenyl)-4-oxothiazolidin-2-ylidene)-3-(2-fluoro-4-(1-(4-(trifluoromethoxy)phenyl)-1H-1,2,4-triazol-3-yl)phenyl)urea] | – | – | – | – | 50 to 100% | 50 to 100% | 0 to 80% | A (80-100)
Cc1ccc([N+](=O)[O-])c(N2C(=O)CS/C2=N\C(=O)Nc2ccc(-c3ncn(-c4ccc(OC(F)(F)F)cc4)n3)cc2)c1 [Compound J313, (Z)-1-(3-(5-Methyl-2-nitrophenyl)-4-oxothiazolidin-2-ylidene)-3-(4-(1-(4-(trifluoromethoxy)phenyl)-1H-1,2,4-triazol-3-yl)phenyl)urea] | 50 to 100% | 50 to 100% | – | B (More than 0-Less than 80) | – | – | – | –
Cc1ccc(Cc2ccccc2F)c(N2C(=O)CS/C2=N\C(=O)Nc2ccc(-c3ncn(-c4ccc(C(F)(F)F)cc4)n3)cc2F)c1 [Compound J708, (Z)-1-(2-Fluoro-4-(1-(4-(trifluoromethyl)phenyl)-1H-1,2,4-triazol-3-yl)phenyl)-3-(3-(2-(2-fluorobenzyl)-5-methylphenyl)-4-oxothiazolidin-2-ylidene)urea] | – | – | – | – | 50 to 100% | 50 to 100% | – | A (80-100)
Cc1cc(-c2ncn(-c3ccc(OC(F)(F)F)cc3)n2)ccc1NC(=O)/N=C1\SCC(=O)N1c1ccccc1COCC(F)(F)F [Compound J653, (Z)-1-(2-Methyl-4-(1-(4-(trifluoromethoxy)phenyl)-1H-1,2,4-triazol-3-yl)phenyl)-3-(4-oxo-3-(2-((2,2,2-trifluoroethoxy)methyl)phenyl)thiazolidin-2-ylidene)urea] | – | – | – | – | 50 to 100% | 50 to 100% | 0 to 80% | A (80-100)
Cc1ccc(COCc2cc3c(C(F)(F)F)nn(C)c3s2)c(N2C(=O)CS/C2=N\C(=O)Nc2ccc(-c3ncn(-c4ccc(OC(F)(F)F)cc4)n3)cc2F)c1 [Compound J712, (Z)-1-(2-Fluoro-4-(1-(4-(trifluoromethoxy)phenyl)-1H-1,2,4-triazol-3-yl)phenyl)-3-(3-(5-methyl-2-(((1-methyl-3-(trifluoromethyl)-1H-thieno[2,3-c]pyrazol-5-yl)methoxy)methyl)phenyl)-4-oxothiazolidin-2-ylidene)urea] | – | – | – | – | 50 to 100% | 50 to 100% | – | A (80-100)
Cc1cc(N2C(=O)CS/C2=N\C(=O)Nc2ccc(-c3ncn(-c4ccc(OC(F)(F)F)cc4)n3)cc2F)c(C)cc1F [Compound J714, (Z)-1-(3-(4-Fluoro-2,5-dimethylphenyl)-4-oxothiazolidin-2-ylidene)-3-(2-fluoro-4-(1-(4-(trifluoromethoxy)phenyl)-1H-1,2,4-triazol-3-yl)phenyl)urea] | – | – | – | – | 50 to 100% | 50 to 100% | – | A (80-100)
O=C(/N=C1\SCC(=O)N1c1ccccc1C(F)F)NCCc1ccc(-c2ncn(-c3ccc(OC(F)(F)F)cc3)n2)cc1 [Compound H11] | 50 to 100% | 50 to 100% | 0 to 80% | A (80-100) | – | – | – | –

Reference: US20230077362A1 (CORTEVA AGRISCIENCE LLC, priority 2019, published 2023)
